Tests used:
[1] = 16 volunteers; subtherapeutic doses with propolis (375 mg/day); ref [21]; cited from earlier work
[2] = propolis coadministered with duloxetine; ref [19]; cited from earlier work
[3] = Plasma pharmacokinetics after per os enrofloxacin alone or with per os propolis (HPLC-FL, non-compartmental analysis); conditions: rabbit plasma, CPR = metabolite of ENR
Description: (§1) This study was carried out under ideal conditions for rabbits, with ad libitum food and water. A total of 12 New Zealand White female rabbits, aged 4–6 months and weighing 2500–3000 g, were used in this study. The rabbits were randomly allocated into two groups, and each group consisted of six animals in the first phase of the study. This study was performed according to a two-phase longitudinal pharmacokinetic design. A 40-day elimination period was allowed between the treatments.
(§2) The collected blood samples were centrifuged at 13,000 rpm for 10 min, and plasma was removed and stored at −20 °C until HPLC analysis.
The mobile phase consisted of acetonitrile, and methanol (50:50) and potassium phosphate monobasic (20 mM, pH: 3.40) were delivered in an isocratic fashion at a flow rate of 1 mL/min. The fluorescence detector (FL, G1321B, Agilent, Germany) was at an excitation wavelength of 280 nm and an emission wavelength of 450 nm. […]
(§3) The plasma concentration–time curves obtained after each treatment in the individual animals were fitted with the WinNonlin software program (Version 5.2, Pharsight Corporation, Mountain View, CA, USA). The pharmacokinetic parameters for each animal were analyzed using non-compartmental model analysis. […]
The mean residence time (MRT) was calculated as follows: MRT0→∞ = AUMC0→∞/AUC0→∞ […]

[4] = Observation of systemic or local adverse effects during the study; conditions: rabbits; enrofloxacin per os 20 mg/kg or IM 10 mg/kg, propolis 100 mg resin/kg per os
Description: The significance of the results was analyzed pharmacokinetically.
as §1

[5] = Plasma pharmacokinetics after intramuscular enrofloxacin alone or with per os propolis (HPLC-FL, non-compartmental analysis); conditions: after ENR 10 mg/kg IM alone
Description: as §1, §2
The mobile phase consisted of acetonitrile, and methanol (50:50) and potassium phosphate monobasic (20 mM, pH: 3.40) were delivered in an isocratic fashion at a flow rate of 1 mL/min. The fluorescence detector (FL, G1321B, Agilent, Germany) was at an excitation wavelength of 280 nm and an emission wavelength of 450 nm. The Photo Diode Array Detector (DAD) was set at a wavelength of 279 nm for marbofloxacin (I.S.) analysis. The injection volume was 50 µL throughout the analysis, and a chromatographic analysis was completed in 10 min for plasma samples following injection. […]
as §3
The mean residence time (MRT) was calculated as follows: MRT0→∞ = AUMC0→∞/AUC0→∞
Terminal half-life (T1/2λz) was calculated as follows: T1/2λz= −ln(2)/λz where λz represents the first-order rate constant associated with the terminal (log-linear) portion of the curve.
The pharmacokinetic parameters are reported as mean (±SD). Harmonic means were calculated for T1/2λz and MRT0–∞. […] Non-normally distributed data were analyzed by a non-parametric Mann–Whitney U-Test; meanwhile, normally distributed data were compared by independent t-test using SPSS Statistics 23.0 (IBM Corp, Armonk, NY, USA). […]

CCCCc1nc(Cl)c(CO)n1Cc1ccc(-c2ccccc2-c2nn[nH]n2)cc1 [losartan]
change of AUC with propolis [1]: decreased

CNCC[C@H](Oc1cccc2ccccc12)c1cccs1 [duloxetine]
increase in AUC with propolis coadministration [2]: 20–30% | increase in Cmax with propolis coadministration [2]: 20–30%

O=C(O)c1cn(C2CC2)c2cc(N3CCNCC3)c(F)cc2c1=O [CPR + PP]
AUMC0-∞ (dose-normalized) ([3]; after ENR 20 mg/kg per os with propolis 100 mg resin/kg): 63.99±17.18 µg.h2/ml

O=C(O)c1cn(C2CC2)c2cc(N3CCNCC3)c(F)cc2c1=O [CPR, ciprofloxacin]
AUMC0-∞ (dose-normalized) ([3]; after ENR 20 mg/kg per os alone): 27.72±13.72 µg.h2/ml

COc1ccc2[nH]c([S+]([O-])Cc3ncc(C)c(OC)c3C)nc2c1 (stereo not drawn) [omeprazole]
change of AUC with propolis [1]: increased

Cc1ncc2n1-c1ccc(Cl)cc1C(c1ccccc1F)=NC2 [midazolam]
change of AUC with propolis [1]: increased

Cn1c(=O)c2c(ncn2C)n(C)c1=O [caffeine]
change of AUC with propolis [1]: decreased

CCN1CCN(c2cc3c(cc2F)c(=O)c(C(=O)O)cn3C2CC2)CC1 [ENR, enrofloxacin]
systemic or local adverse effects [4]: neither systemic nor local adverse effects were observed | AUMC0-∞ (dose-normalized) ([5]; dose-normalized, rabbit plasma, CPR = metabolite of ENR): 59.21±18.78 µg.h2/ml | Cmax ([5]; female, New Zealand White, rabbit, plasma, im, 10 mg/kg, Cmax, n = 6, CPR = metabolite of ENR): 2.98 ± 0.35 µg/mL | Tmax ([5]; female, New Zealand White, rabbit, plasma, im, 10 mg/kg, Tmax, n = 6, CPR = metabolite of ENR): 28.2 ± 4.8 min
